Measurements from patent US7776862B2, “Pyridyl and phenyl substituted piperazine-piperidines with CXCR3 antagonist activity” (Schering Corporation, priority 2005, dated 2010).

molecular target: T1, human CXCR3 (N-delta 4) (Homo sapiens, UniProt P49682); test: Human CXCR3 (N-delta 4) scintillation proximity assay (SPA), [125I] IP-10 binding; settings: IC50 rating; Ba/F3-hCXCR3 (N-delta 4) membranes, 25 pM [125I] IP-10
T1 construct: CD8 leader; Flag tag; expressed in transfected cells; membranes used
T1 sequence (P49682 5-368 limits assumed): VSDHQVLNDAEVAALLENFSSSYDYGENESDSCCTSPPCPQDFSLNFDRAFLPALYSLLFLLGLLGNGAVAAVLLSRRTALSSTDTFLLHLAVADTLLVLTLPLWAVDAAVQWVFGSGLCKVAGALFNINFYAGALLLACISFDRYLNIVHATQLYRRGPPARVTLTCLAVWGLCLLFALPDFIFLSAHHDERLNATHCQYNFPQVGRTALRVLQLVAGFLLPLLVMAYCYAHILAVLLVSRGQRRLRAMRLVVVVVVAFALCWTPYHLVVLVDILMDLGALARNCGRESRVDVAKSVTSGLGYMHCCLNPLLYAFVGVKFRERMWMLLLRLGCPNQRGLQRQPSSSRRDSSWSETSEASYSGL
How it was run: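 IP-10 and compound titrations added together. The receptor source was SPA beads bearing membranes from Ba/F3 cells transfected with human CXCR3 (N-delta 4) carrying a CD8 leader and Flag tag.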

IC50 [µM]	Structure (SMILES)
> 0.1	CNC(=O)c1cnc(N2CCN(C3CCN(Cc4ccc(F)cc4S(=O)(=O)N(C)c4ccc(Cl)cc4)CC3)[C@@H](C)C2)c(Cl)c1 [compound 354]
> 0.1	C[C@H]1CN(c2ncc(C(=O)N3CCCCC3)cc2Cl)CCN1C1CCN(Cc2ccc(Cl)cc2)CC1 [compound 355]
> 0.1	CC[C@H]1CN(c2ncc(C(=O)NC)cc2Cl)CCN1C1CCN(C2c3ccc(Cl)cc3CCc3cccnc32)CC1 (some centres unmarked) [compound 356]
> 0.1	C=CCNc1c(C(N)=O)cnc(N2CCN(C3CCN(Cc4ccc(Cl)cc4F)CC3)[C@@H](CC)C2)c1Cl [compound 357]
> 0.1	O=C(NCc1cccnc1)c1cnc(N2CCN(C3CCN(Cc4ccc(Cl)cc4)CC3)CC2)c(Cl)c1 [compound 358]
> 0.1	CNC(=O)c1cnc(N2CCN(C3CCN(/C(=N\C#N)c4ccc(Cl)cc4)CC3)[C@@H](C)C2)c(Cl)c1 [compound 359]
> 0.1	CNC(=O)c1cnc(N2CCN(C3CCN(Cc4c(C)cccc4C)CC3)[C@@H](C)C2)c(Cl)c1 [compound 360]
> 0.1	CNC(=O)c1cnc(N2CCN(C3CCN(C(=O)c4cc5cc(Cl)ccc5[nH]4)CC3)[C@@H](C)C2)c(Cl)c1 [compound 361]
> 0.1	O=C(NCc1ccc(F)c(F)c1)c1cnc(N2CCN(C3CCN(Cc4ccccc4)CC3)CC2)c(Cl)c1 [compound 362]
> 0.1	CC[C@H]1CN(c2ncc(C(=O)NC)c3ccccc23)CCN1C1CCN(Cc2ccc(Cl)cc2F)CC1 [compound 363]
> 0.1	O=C(NCCc1c[nH]c2ccccc12)c1cnc(N2CCN(C3CCN(Cc4ccc(Cl)cc4)CC3)CC2)c(Cl)c1 [compound 364]
> 0.1	CC[C@H]1CN(c2ncc(C(=O)NCc3ccc(F)c(F)c3)cc2Cl)CCN1C1CCN(C)CC1 [compound 365]
> 0.1	CNC(=O)c1cnc(N2CCN(C3CCN(Cc4c(F)cccc4F)CC3)[C@@H](C)C2)c(Cl)c1 [compound 366]
< 0.025	CC[C@H]1CN(c2ncc(CNC(=O)NC3CC3)cc2Cl)CCN1C1CCN(Cc2ccc(Br)cc2F)CC1 [compound 367]
< 0.025	CCNC(=O)NCc1cnc(N2CCN(C3CCN(Cc4ccc(Cl)cc4F)CC3)[C@@H](CC)C2)c(Cl)c1 [compound 368]
< 0.025	CC[C@H]1CN(c2ncc(CNC(=O)NCC(F)(F)F)cc2Cl)CCN1C1CCN(Cc2ccc(Cl)cc2F)CC1 [compound 369]
< 0.025	CC[C@H]1CN(c2ncc(CNC(=O)NC(C)C)cc2Cl)CCN1C1CCN(Cc2ccc(Cl)cc2F)CC1 [compound 370]
< 0.025	CC[C@H]1CN(c2ncc(CNC(=O)NCC(F)(F)F)cc2Cl)CCN1C1CCN(Cc2ccc(Br)cc2F)CC1 [compound 371]
< 0.025	CC[C@H]1CN(c2ncc(CNC(=O)NC3CC3)cc2Cl)CCN1C1CCN(Cc2ccc(Cl)cc2F)CC1 [compound 372]
< 0.025	CC[C@H]1CN(c2ncc(CNC(=O)NC(C)(C)C)cc2Cl)CCN1C1CCN(Cc2ccc(Cl)cc2F)CC1 [compound 373]
< 0.025	CC[C@H]1CN(c2ncc(CNC(=S)NC3CC3)cc2Cl)CCN1C1CCN(Cc2ccc(Cl)cc2F)CC1 [compound 374]
< 0.025	CC[C@H]1CN(c2ncc(CO)cc2Cl)CCN1C1CCN(Cc2ccc(Br)cc2)CC1 [compound 375]

IC50 [µM]	Structure (SMILES)
< 0.025	CC[C@H]1CN(c2ncc(CNC(N)=O)cc2Cl)CCN1C1CCN(Cc2ccc(Br)cc2F)CC1 [compound 376]
< 0.025	CC[C@H]1CN(c2ncc(CNC(=O)NC)cc2Cl)CCN1C1CCN(Cc2ccc(Cl)cc2F)CC1 [compound 377]
< 0.025	CC[C@H]1CN(c2ncc(CNS(C)(=O)=O)cc2Cl)CCN1C1CCN(Cc2ccc(Br)cc2F)CC1 [compound 378]
< 0.025	CC[C@H]1CN(c2ncc(CNC(N)=O)cc2Cl)CCN1C1CCN(Cc2ccc(Cl)cc2F)CC1 [compound 379]
< 0.025	CC[C@H]1CN(c2ncc(CNS(C)(=O)=O)cc2Cl)CCN1C1CCN(Cc2ccc(Cl)cc2F)CC1 [compound 380]
< 0.025	CC[C@H]1CN(c2ncc(CN/C(=N\C#N)NCC(F)(F)F)cc2Cl)CCN1C1CCN(Cc2ccc(Cl)cc2F)CC1 [compound 381]
< 0.025	CCNC(=O)OCc1cnc(N2CCN(C3CCN(Cc4ccc(Cl)cc4F)CC3)[C@@H](CC)C2)c(Cl)c1 [compound 382]
< 0.025	CC[C@H]1CN(c2ncc(CO)cc2Cl)CCN1C1CCN(Cc2ccc(Br)cc2F)CC1 [compound 383]
< 0.025	CC[C@H]1CN(c2ncc(CNS(=O)(=O)N(C)C)cc2Cl)CCN1C1CCN(Cc2ccc(Br)cc2F)CC1 [compound 384]
< 0.025	CCNC(=O)NCc1cnc(N2CCN(C3CCN(Cc4ccc(Cl)cc4)CC3)[C@@H](C)C2)c(Cl)c1 [compound 385]
< 0.025	CC[C@H]1CN(c2ncc(CNS(=O)(=O)CC)cc2Cl)CCN1C1CCN(Cc2ccc(Cl)cc2F)CC1 [compound 386]
< 0.025	CC[C@H]1CN(c2ncc(CNC(C)=O)cc2Cl)CCN1C1CCN(Cc2ccc(Cl)cc2F)CC1 [compound 387]
< 0.025	CCCS(=O)(=O)NCc1cnc(N2CCN(C3CCN(Cc4ccc(Cl)cc4F)CC3)[C@@H](CC)C2)c(Cl)c1 [compound 388]
< 0.025	CC[C@H]1CN(c2ncc(CN/C(N)=N\C#N)cc2Cl)CCN1C1CCN(Cc2ccc(Cl)cc2F)CC1 [compound 389]
< 0.025	CC[C@H]1CN(c2ncc(CNC(=O)NC3CCCCC3)cc2Cl)CCN1C1CCN(Cc2ccc(Cl)cc2F)CC1 [compound 390]
< 0.025	CC[C@H]1CN(c2ncc(CNS(=O)(=O)N(C)C)cc2Cl)CCN1C1CCN(Cc2ccc(Cl)cc2F)CC1 [compound 391]
< 0.025	CC[C@H]1CN(c2ncc(CO)cc2Cl)CCN1C1CCN(Cc2ccc(Cl)cc2F)CC1 [compound 392]
< 0.025	CC[C@H]1CN(c2ncc(CNC)cc2Cl)CCN1C1CCN(Cc2ccc(Cl)cc2F)CC1 [compound 393]
< 0.025	CC[C@H]1CN(c2ncc(CNC(=N)N)cc2Cl)CCN1C1CCN(Cc2ccc(Cl)cc2F)CC1 [compound 394]
< 0.025	CC[C@H]1CN(c2ncc(CNC3CC3)cc2Cl)CCN1C1CCN(Cc2ccc(Cl)cc2F)CC1 [compound 395]
< 0.025	CC[C@H]1CN(c2ncc(CNC(=O)NCC(F)(F)F)cc2Cl)CCN1C1CCN(C(=O)c2ccc(Br)cc2)CC1 [compound 396]
< 0.025	CCNC(=O)NCc1cnc(N2CCN(C3CCN(Cc4ccc(Cl)cc4)CC3)[C@@H](CC)C2)c(Cl)c1 [compound 397]

IC50 [µM]	Structure (SMILES)
< 0.025	CC[C@H]1CN(c2ncc(CNC(=O)Nc3ccc(F)c(F)c3)cc2Cl)CCN1C1CCN(Cc2ccc(Cl)cc2)CC1 [compound 400]
< 0.025	CC[C@H]1CN(c2ncc(CNC(=O)NN)cc2Cl)CCN1C1CCN(Cc2ccc(Cl)cc2F)CC1 [compound 401]
< 0.025	CC[C@H]1CN(c2ncc(COC(=O)Nc3c(C)noc3C)cc2Cl)CCN1C1CCN(Cc2ccc(Cl)cc2F)CC1 [compound 402]
< 0.025	CC[C@H]1CN(c2ncc(CN/C(=N\C#N)NC)cc2Cl)CCN1C1CCN(Cc2ccc(Cl)cc2F)CC1 [compound 403]
< 0.025	CC[C@H]1CN(c2ncc(C(N)=NO)cc2Cl)CCN1C1CCN(Cc2ccc(Cl)cc2F)CC1 [compound 404]
< 0.025	CC[C@H]1CN(c2ncc(COC(=O)NC(C)C)cc2Cl)CCN1C1CCN(Cc2ccc(Cl)cc2F)CC1 [compound 405]
< 0.025	CCNCc1cnc(N2CCN(C3CCN(Cc4ccc(Cl)cc4F)CC3)[C@@H](CC)C2)c(Cl)c1 [compound 406]
< 0.025	CC[C@H]1CN(c2ncc(CNc3nccs3)cc2Cl)CCN1C1CCN(Cc2ccc(Cl)cc2F)CC1 [compound 407]
< 0.025	CC[C@H]1CN(c2ncc(CNC(=O)N(C(=O)NC3CC3)C3CC3)cc2Cl)CCN1C1CCN(Cc2ccc(Br)cc2F)CC1 [compound 408]
0.025 to 0.1	CCNC(=O)N(CC)Cc1cnc(N2CCN(C3CCN(Cc4ccc(Cl)cc4F)CC3)[C@@H](CC)C2)c(Cl)c1 [compound 409]
0.025 to 0.1	CC[C@H]1CN(c2ncc(CNC(=O)N(C)C)cc2Cl)CCN1C1CCN(Cc2ccc(Cl)cc2F)CC1 [compound 410]
0.025 to 0.1	CCC(=O)c1cnc(N2CCN(C3CCN(Cc4ccc(Cl)cc4F)CC3)[C@@H](CC)C2)c(Cl)c1 [compound 411]
0.025 to 0.1	CC[C@H]1CN(c2ncc(CNc3c(NC4CC4)c(=O)c3=O)cc2Cl)CCN1C1CCN(Cc2ccc(Br)cc2F)CC1 [compound 412]
0.025 to 0.1	CC[C@H]1CN(c2ncc(CN)cc2Cl)CCN1C1CCN(Cc2ccc(Cl)cc2)CC1 [compound 413]
0.025 to 0.1	CC[C@H]1CN(c2ncc(CN(C3CC3)S(C)(=O)=O)cc2Cl)CCN1C1CCN(Cc2ccc(Cl)cc2F)CC1 [compound 414]
0.025 to 0.1	CCOC(=N)c1cnc(N2CCN(C3CCN(Cc4ccc(Cl)cc4F)CC3)[C@@H](CC)C2)c(Cl)c1 [compound 415]
0.025 to 0.1	CC[C@H]1CN(c2ncc(CNS(=O)(=O)CC(F)(F)F)cc2Cl)CCN1C1CCN(Cc2ccc(Cl)cc2F)CC1 [compound 416]
0.025 to 0.1	CC[C@H]1CN(c2ncc(CNC(=O)Nc3c(C)noc3C)cc2Cl)CCN1C1CCN(Cc2ccc(Cl)cc2F)CC1 [compound 417]
0.025 to 0.1	CC[C@H]1CN(c2ncc(CO)cc2Cl)CCN1C1CCN(C(=O)c2ccc(Br)cc2)CC1 [compound 418]
0.025 to 0.1	CC[C@H]1CN(c2ncc(C(=O)C3CC3)cc2Cl)CCN1C1CCN(Cc2ccc(Cl)cc2F)CC1 [compound 419]
0.025 to 0.1	CC[C@H]1CN(c2ncc(COC(=O)Nc3ccc(F)cc3)cc2Cl)CCN1C1CCN(Cc2ccc(Cl)cc2F)CC1 [compound 420]
